Consider five compounds from US6221867A, “4,5-pyrazinoxindoles” (Hoffmann-La Roche Inc., priority 1999, dated 2001).

This assay has as its target rat SAPK (isoform β) (Rattus norvegicus, UniProt P49187). The assay can be described thus: SAPK FlashPlate Assay (inhibition of cJun phosphorylation). The assay is classed as biochemical. Conditions: for SAPK % Inhibition: at test concentration 0.5 μM, GST-cJun substrate, 33P-ATP. How it is done:
"IC50 " refers to the concentration of a particular 4,5-pyrazinoxindole required to inhibit 50% of cJun phosphorylation, which is a measure of inhibition of SAPK activity. IC50 can be measured, inter alia, using the assay described herein in Example 7, infra.
Human JNK is highly homologous to rat SAPK. To measure the inhibitory activity of test compounds, the compounds were tested in the rat SAPK assay. For the SAPK assay, purified GST-cJun (a chimeric protein containing cJun, a natural substrate of JNK) was coated on 96 well FlashPlates (New England Nuclear, Boston, Mass.). Purified rat SAPK (isoform β, Kyriakis et al. supra) was preincubated with preparations containing MEKK-1 and MKK4 for 30 minutes at 37° C. in assay buffer containing 25 mM HEPES, pH 7.5, 150 mM NaCl, 20 mM MgCl2, 2 mM DTT, 0.001% Tween 20, 1 μM ATP freshly added. In the preincubation step, MEKK-1 phosphorylates and activates MKK-4, which in turn phosphorylates and activates SAPK. The activated SAPK was then added to the cJun coated FlashPlates along with ^33 P-ATP (0.32 μCi per reaction) and test compounds. The plates were incubated for 30 minutes at 37° C., then washed with PBS, 0.01% Tween 20, and counted in the Topcount scintillation counter (Packard Instrument Co., Downers Grove, Ill.). Dilutions of compounds were tested in duplicate in each assay. The percent inhibition of cJun phosphorylation (a measure of inhibition of SAPK activity) was determined by the following formula: [formula]
where "test compound" refers to the average counts per minute of the test duplicates, "nonspecific" refers to the average counts per minute when no SAPK was added, and "total" refers to the average counts per minute when no compound was added.

Chain of rat SAPK (isoform β) (P49187 whole entry, canonical isoform): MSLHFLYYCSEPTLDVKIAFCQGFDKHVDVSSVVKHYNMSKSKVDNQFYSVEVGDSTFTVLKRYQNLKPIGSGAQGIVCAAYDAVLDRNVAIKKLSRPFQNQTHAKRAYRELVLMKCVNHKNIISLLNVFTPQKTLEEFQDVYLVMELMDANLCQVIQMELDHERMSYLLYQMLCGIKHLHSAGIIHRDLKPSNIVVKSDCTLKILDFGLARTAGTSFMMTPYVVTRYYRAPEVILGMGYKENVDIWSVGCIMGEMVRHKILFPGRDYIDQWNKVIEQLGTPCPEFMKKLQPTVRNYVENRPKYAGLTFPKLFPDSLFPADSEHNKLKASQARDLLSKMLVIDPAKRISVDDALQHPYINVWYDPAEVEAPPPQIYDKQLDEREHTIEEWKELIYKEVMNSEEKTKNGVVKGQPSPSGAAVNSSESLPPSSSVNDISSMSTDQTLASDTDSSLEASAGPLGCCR

For the compound `COc1cc[nH]c1/C=C1\C(=O)Nc2ccc3nc(C)c(C)nc3c21` [A, (Z)-7,9-Dihydro-2,3-dimethyl-9-[(3-methoxy-1H-pyrrol-2-yl)methylene]-8H-pyrrolo-[3,2-f]quinoxalin-8-one], the inhibition at 0.1 µM (read-out: SAPK % Inhibition) is at least 50%. `COc1cc[nH]c1/C=C1\C(=O)Nc2ccc3nc(-c4ccco4)c(-c4ccco4)nc3c21` [D, (Z)-7,9-Dihydro-2,3-di-(2-furanyl)-9-[(3-methoxy-1H-pyrrol-2-yl)methylene]-8H-pyrrolo[3,2-f]quinoxalin-8-one]: the inhibition at 0.5 µM (read-out: SAPK % Inhibition) is at least 50%.

For the compound `COc1cc[nH]c1/C=C1\C(=O)Nc2ccc3nc4c(nc3c21)CCCC4` [E, (Z)-1,3,5,6,7,8-Hexahydro-3-[(3-methoxy-1H-pyrrol-2-yl)methylene]-2H-pyrrolo[3,2-a]phenazin-2-one], the inhibition at 0.1 µM (read-out: SAPK % Inhibition) was at least 50%. Turning to “(Z)-7,9-Dihydro-9-[(3-methoxy-1H-pyrrol-2-yl)methylene]-2-methyl-3-phenyl-8H-pyrrolo[3,2-f]quinoxalin-8-one and (Z)-7,9-dihydro-9-[(3-methoxy-1H-pyrrol-2-yl)methylene]-3-methyl-2-phenyl- 8H-pyrrolo[3,2-f]quinoxalin-8-one [C]”, the “SAPK % Inhibition” value is recorded as at least 50%. As for “Mixture of (Z)-3-butyl-7,9-dihydro-9-[(3-methoxy-1H-pyrrol-2-yl)methylene]-2-methyl-8H-pyrrolo[3,2-f]quinoxalin-8-one and (Z)-2-butyl-7,9-dihydro-9-[(3-methoxy-1H-pyrrol-2-yl)methylene]-3-methyl-8H-pyrrolo[3,2-f]quinoxalin-8-one”, the “SAPK % Inhibition” value is reported as at least 50%.

One may read the inhibition as the percentage by which the read-out fell short of the control.
